From ChEMBL document CHEMBL1146406, “Inhibition of Bacterial RNA Polymerases. Peptide Metabolites from the Cultures of Streptomyces sp” (J Nat Prod, 1997)
The source made the active and inactive calls. The rule behind the calls is not given here. Numbered stars: 1 amine (or outer) side, 2 acyl side, 3 side chain; on linkers, the order of the positions; unused ones are H or OH. Bridge positions count the residues as written; N and C are the ends. Square brackets hold non-standard residues; d marks the D form. Peptide text beside a SMILES is read from it. * marks the point of attachment. X2 = C[C@H](Oc1ccc([C@H](N[*:1])C(=O)[*:2])cc1)[C@@]1(/C=C/C(=O)[*:3])CO1; X1 = CC(C)[C@H](O)[C@H](C)C(=O)*; aIle = CC[C@@H](C)[C@H](N)C(=O)O; dNMeF = CN[C@H](Cc1ccccc1)C(=O)O; aThr = C[C@H](O)[C@H](N)C(=O)O

How the values were obtained:
[1] = test system: Escherichia coli; assay: (§1) Inhibition of Escherichia coli RNA polymerase by high throughput filtration assay
[2] = test system: Staphylococcus aureus; assay: (§2) Inhibition of Staphylococcus aureus RNA polymerase by high throughput filtration assay
[3] = as §1
[4] = species on record: Homo sapiens; assay: Inhibition of human RNA polymerase
[5] = as §2

SMILES | Activity [1] | Activity [2] | IC50 [3] [µM] | Activity [4] | IC50 [5] [µM]
CC[C@@H](C)[C@@H]1NC(=O)[C@@H](CC(C)C)NC(=O)[C@H](CC(C)C)NC(=O)[C@H](Cc2c[nH]c3ccccc23)NC(=O)CNC(=O)[C@H](CC(N)=O)NC1=O (cyclo(GWL[dL][aIle]N)) | inactive | inactive |  |  | 
CC[C@@H](C)[C@@H]1NC(=O)[C@H](NC(=O)[C@@H](C)[C@@H](O)C(C)C)[C@H](C)OC(=O)[C@H]2COC(=O)CNC(=O)/C=C/[C@@]3(CO3)[C@H](C)Oc3ccc(cc3)[C@H](NC1=O)C(=O)N(C)[C@H](Cc1ccccc1)C(=O)N[C@@H]([C@H](C)O)C(=O)N2 [SALINAMIDE A] (X1-[dT][aIle][X2][dNMeF][aThr][dS]; ester 1-C; linker 3-6 via G) |  |  | 0.5 | inactive | 0.5
